≈ marks a conversion by molar mass, not a printed value.
Key:
[1] = system: E. coli NCTC 13441 (UPEC); test: MIC broth microdilution; assay type: cell-based, Escherichia coli; settings: Escherichia coli, NCTC13441
Outline: (§1)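 Following CLSI standards, susceptibility is measured in cation-adjusted Müller-Hinton broth at 37° C without added CO2 for 20-24 hours. Test concentrations run 0.39-200 μM final in doubling steps, DMSO capped at 2%. MIC: lowest concentration without bacterial growth.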

[2] = system: Acinetobacter baumannii ATCC 17978 (AB); test: MIC broth microdilution; assay type: cell-based; settings: ATCC17978
Outline: as §1

[3] = system: Escherichia coli K12 (EC); test: MIC broth microdilution; assay type: cell-based
Outline: as §1

[4] = system: Klebsiella pneumoniae ATCC 10031 (KP2); test: MIC broth microdilution; assay type: cell-based; settings: ATCC10031
Outline: (§2)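 Planktonic MIC determination: compound tested two-fold from 200 down to 0.39 μM final with DMSO capped at 2% final, cation-adjusted Müller-Hinton broth, 37° C for 20-24 hours. Endpoint is the lowest concentration inhibiting growth.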

[5] = system: Pseudomonas aeruginosa ATCC 33359 (PA); test: MIC broth microdilution; assay type: cell-based; settings: ATCC33359
Outline: as §1

[6] = system: Staphylococcus aureus ATCC 35556 (SA); test: MIC broth microdilution; assay type: cell-based; settings: ATCC35556
Outline: as §1

[7] = system: K. pneumoniae NCTC 13438 (KP1); test: MIC broth microdilution; assay type: cell-based, Klebsiella pneumoniae; settings: Klebsiella pneumoniae, NCTC13438
Outline: as §2

[8] = system: human hepatocarcinoma cell line ATCC HB-8065 (HepG2); test: Human cell viability (CellTiter-Glo); assay type: cell-based; settings: Homo sapiens; HepG2 cells, 24 h incubation, CellTiter-Glo luminescence, 0.2-100 μM; read-out: IC50 values against the HepG2 cell line
Outline: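 Cytotoxicity was read as CellTiter-Glo luminescence after 24 h compound exposure at 37° C., 5% CO2. Final concentrations spanned 0.2-100 μM in two-fold steps, in 1% FBS MEM with 1% DMSO, on cells plated a day earlier at 20,000/well. IC50 came from 4-parameter logistic regression.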

SMILES | MIC [1] [µM] | MIC [2] [µM] | MIC [3] [µM] | MIC [4] [µM] | MIC [5] [µM] | MIC [6] [µM] | MIC [7] [µM] | IC50 [8] [µM]
Cc1cc(-c2[nH]c(N)nc2-c2ccc3c(c2)N(C)CCO3)ccn1 [Example 44, 4-(4-Methyl-3,4-dihydro-2H-benzo[b][1,4]oxazin-6-yl)-5-(2-methylpyridin-4-yl)-1H-imidazol-2-amine] | 1 to 10 (≈ 0.321 to 3.21 µg/mL) | > 100 | 1 to 10 (≈ 0.321 to 3.21 µg/mL) | ≤ 1 | > 100 | > 100 | 1 to 10 (≈ 0.321 to 3.21 µg/mL) | > 100
Nc1nc(-c2ccc3c(c2)NCCO3)c(-c2ccnc(C(F)(F)F)c2)[nH]1 [Example 46, 4-(3,4-Dihydro-2H-benzo[b][1,4]oxazin-6-yl)-5-(2-(trifluoromethyl)pyridin-4-yl)-1H-imidazol-2-amine] | 1 to 10 (≈ 0.361 to 3.61 µg/mL) | > 100 | 1 to 10 (≈ 0.361 to 3.61 µg/mL) | ≤ 1 | > 100 | > 100 | 10 to 100 (≈ 3.61 to 36.1 µg/mL) | > 100
Nc1nc(-c2ccc3c(c2)NCCO3)c(-c2ccnc(F)c2)[nH]1 [Example 47, 4-(3,4-Dihydro-2H-benzo[b][1,4]oxazin-6-yl)-5-(2-fluoropyridin-4-yl)-1H-imidazol-2-amine] | 1 to 10 (≈ 0.311 to 3.11 µg/mL) | > 100 | 1 to 10 (≈ 0.311 to 3.11 µg/mL) | ≤ 1 | > 100 | > 100 | 10 to 100 (≈ 3.11 to 31.1 µg/mL) | > 100
Cc1cc(-c2[nH]c(N)nc2-c2ccc3c(c2)NCCCO3)ccn1 [Example 48, 5-(2-Methylpyridin-4-yl)-4-(2,3,4,5-tetrahydrobenzo[b][1,4]oxazepin-7-yl)-1H-imidazol-2-amine] | 1 to 10 (≈ 0.321 to 3.21 µg/mL) | > 100 | 1 to 10 (≈ 0.321 to 3.21 µg/mL) | ≤ 1 | > 100 | > 100 | 10 to 100 (≈ 3.21 to 32.1 µg/mL) | > 100
Cc1cc(-c2[nH]c(N)nc2-c2cc(F)c3c(c2)NC(=O)CO3)ccn1 [Example 50, 6-(2-Amino-5-(2-methylpyridin-4-yl)-1H-imidazol-4-yl)-8-fluoro-2H-benzo[b][1,4]oxazin-3(4H)-one] | 1 to 10 (≈ 0.339 to 3.39 µg/mL) | > 100 | 1 to 10 (≈ 0.339 to 3.39 µg/mL) | ≤ 1 | > 100 | > 100 | 10 to 100 (≈ 3.39 to 33.9 µg/mL) | > 100
Cc1cc(-c2[nH]c(N)nc2-c2ccc3c(c2)NC(=O)CO3)ccn1 [Example 51, 6-(2-Amino-5-(2-methylpyridin-4-yl)-1H-imidazol-4-yl)-2H-benzo[b][1,4]oxazin-3(4H)-one] | 1 to 10 (≈ 0.321 to 3.21 µg/mL) | > 100 | 1 to 10 (≈ 0.321 to 3.21 µg/mL) | ≤ 1 | > 100 | > 100 | 10 to 100 (≈ 3.21 to 32.1 µg/mL) | > 100
Cc1cc(-c2[nH]c(N)nc2-c2ccc3c(c2)NCC(=O)O3)ccn1 [Example 53, 6-(2-Amino-5-(2-methylpyridin-4-yl)-1H-imidazol-4-yl)-3,4-dihydro-2H-benzo[b][1,4]oxazin-2-one] | 1 to 10 (≈ 0.321 to 3.21 µg/mL) | > 100 | 1 to 10 (≈ 0.321 to 3.21 µg/mL) | ≤ 1 | > 100 | > 100 | 10 to 100 (≈ 3.21 to 32.1 µg/mL) | > 100
Cc1cc(-c2[nH]c(N)nc2-c2cc3c(cc2F)OCC(=O)N3)ccn1 [Example 54, 6-(2-Amino-5-(2-methylpyridin-4-yl)-1H-imidazol-4-yl)-7-fluoro-2H-benzo[b][1,4]oxazin-3(4H)-one] | 1 to 10 (≈ 0.339 to 3.39 µg/mL) | > 100 | 1 to 10 (≈ 0.339 to 3.39 µg/mL) | ≤ 1 | > 100 | > 100 | 10 to 100 (≈ 3.39 to 33.9 µg/mL) | > 100
Cc1cc(-c2[nH]c(N)nc2-c2cc3c(cc2F)OCCO3)ccn1 [Example 59, 4-(7-Fluoro-2,3-dihydrobenzo[b][1,4]dioxin-6-yl)-5-(2-methylpyridin-4-yl)-1H-imidazol-2-amine] | ≤ 1 | > 100 | ≤ 1 | ≤ 1 | > 100 | > 100 | 10 to 100 (≈ 3.26 to 32.6 µg/mL) | > 100
Cc1cc(-c2[nH]c(N)nc2-c2ccc3c(c2F)OCCO3)ccn1 [Example 60, 4-(5-Fluoro-2,3-dihydrobenzo[b][1,4]dioxin-6-yl)-5-(2-methylpyridin-4-yl)-1H-imidazol-2-amine] | 1 to 10 (≈ 0.326 to 3.26 µg/mL) | > 100 | 1 to 10 (≈ 0.326 to 3.26 µg/mL) | ≤ 1 | > 100 | > 100 | 10 to 100 (≈ 3.26 to 32.6 µg/mL) | > 100
COC(=O)CCN1CCOc2ccc(-c3nc(N)[nH]c3-c3ccnc(C)c3)cc21 [Example 61, Methyl 3-(6-(2-amino-5-(2-methylpyridin-4-yl)-1H-imidazol-4-yl)-2,3-dihydro-4H-benzo[b][1,4]oxazin-4-yl)propanoate] | 1 to 10 (≈ 0.393 to 3.93 µg/mL) | > 100 | 1 to 10 (≈ 0.393 to 3.93 µg/mL) | ≤ 1 | > 100 | > 100 | 1 to 10 (≈ 0.393 to 3.93 µg/mL) | > 100
CC(=O)N1CCOc2ccc(-c3nc(N)[nH]c3-c3ccnc(C)c3)cc21 [Example 63, 1-(6-(2-Amino-5-(2-methylpyridin-4-yl)-1H-imidazol-4-yl)-2,3-dihydro-4H-benzo[b][1,4]oxazin-4-yl)ethan-1-one] | 10 to 100 (≈ 3.49 to 34.9 µg/mL) | > 100 | 10 to 100 (≈ 3.49 to 34.9 µg/mL) | 1 to 10 (≈ 0.349 to 3.49 µg/mL) | > 100 | > 100 | > 100 | > 100
Cc1cc(-c2[nH]c(N)nc2-c2ccc3c(c2)N(CCO)C(=O)CO3)ccn1 [Example 66, 6-(2-Amino-4-(2-methylpyridin-4-yl)-1H-imidazol-5-yl)-4-(2-hydroxyethyl)-2H-benzo[b][1,4]oxazin-3(4H)-one] | 1 to 10 (≈ 0.365 to 3.65 µg/mL) | > 100 | 1 to 10 (≈ 0.365 to 3.65 µg/mL) | ≤ 1 | > 100 | > 100 | 10 to 100 (≈ 3.65 to 36.5 µg/mL) | > 100
Cc1cc(-c2[nH]c(N)nc2-c2ccc(O)c(O)c2)ccn1 [Example 71, 4-(2-Amino-5-(2-methylpyridin-4-yl)-1H-imidazol-4-yl)benzene-1,2-diol] | 10 to 100 (≈ 2.82 to 28.2 µg/mL) | > 100 | 10 to 100 (≈ 2.82 to 28.2 µg/mL) | 1 to 10 (≈ 0.282 to 2.82 µg/mL) | > 100 | > 100 | > 100 | > 100
CNc1nc(-c2ccc3c(c2)OCCO3)c(-c2ccnc(C)c2)[nH]1 [Example 74, 4-(2,3-dihydrobenzo[b][1,4]dioxin-6-yl)-N-methyl-5-(2-methylpyridin-4-yl)-1H-imidazol-2-amine] | 1 to 10 (≈ 0.322 to 3.22 µg/mL) | > 100 | 1 to 10 (≈ 0.322 to 3.22 µg/mL) | ≤ 1 | > 100 | > 100 | 10 to 100 (≈ 3.22 to 32.2 µg/mL) | > 100
Cc1cc(-c2[nH]c(N(C)C)nc2-c2ccc3c(c2)OCCO3)ccn1 [Example 75, 4-(2,3-Dihydrobenzo[b][1,4]dioxin-6-yl)-N,N-dimethyl-5-(2-methylpyridin-4-yl)-1H-imidazol-2-amine] | 10 to 100 (≈ 3.36 to 33.6 µg/mL) | > 100 | 10 to 100 (≈ 3.36 to 33.6 µg/mL) | 1 to 10 (≈ 0.336 to 3.36 µg/mL) | > 100 | > 100 | > 100 | > 100
